# Source: patent US20040224980A1, “Substituted 1H-quinolin-2-one compounds” (priority 2001, published 2004)
# Tested on: phenylquinone-induced writhing reactions
# Test: phenylquinone-induced writhing in mice
# Assay type: in vivo
# Conditions: male NMRI mice, 10 mg/kg i.v., phenylquinone i.p. 10 minutes after compound, writhing counted 5-20 minutes after phenylquinone
# Experimental: The investigation into analgesic efficacy was performed by phenylquinone-induced writhing in mice (modified after: I. C. Hendershot, J. Forsaith, J. Pharmacol. Exp. There. 125, 237-240 (1959)). The corresponding literature description is hereby introduced as a reference and is deemed to be part of the disclosure.
# Male NMRI mice weighing from 25 to 30 g were used for this purpose. Groups of 10 animals per substance dose received, 10 minutes after intravenous administration of the compounds tested, 0.3 ml/mouse of a 0.02% aqueous solution of phenylquinone (phenylbenzoquinone, Sigma, Deisenhofen; solution prepared with addition of 5% of ethanol and stored in a water bath at 45° C.) administered intraperitoneally. The animals were placed individually in observation cages. A push button counter was used to record the number of pain-induced stretching movements (writhing reactions=straightening of the torso with stretching of the rear extremities) for 5-20 minutes after phenylquinone administration. The control was provided by animals which received only physiological common salt solution.
# The compounds were tested at the standard dosage of 10 mg/kg. Inhibition of the writhing reactions by a substance was calculated according to the following formula: [formula]
# The in-depth investigation into analgesic efficacy was performed using phenylquinbne-induced writhing in mice, as described above.
row,Structure (SMILES),% inhibition of writhing reactions [%]
1,"COc1cccc(C2(O)CCC(NC(=O)Cc3c(O)c4ccc(Cl)cc4[nH]c3=O)CC2CN(C)C)c1 (centres unmarked) [Example 1, 2′-(7-Chloro-4-hydroxy-2-oxo-1,2-dihydroquinolin-3-yl)-N-[3″-(N,N-dimethylaminomethyl)-4″-hydroxy-4″-(m-methoxyphenyl)cyclohexyl]acetamide]",60
2,"COc1cccc(C2(O)CCC(NC(=O)Cc3c(OC)c4ccc(Cl)cc4[nH]c3=O)CC2CN(C)C)c1 (centres unmarked) [Example 2, 2′-(7-Chloro-4-methoxy-2-oxo-1,2-dihydroquinolin-3-yl)-N-[3″-(N,N-dimethylaminomethyl)-4″-hydroxy-4″-(m-methoxyphenyl)cyclohexyl]acetamide]",63
